Like-named read-outs stand apart in the source and are kept apart here.
Legend:
[1] = biological target: Dopamine/Spiperone/neuroleptic receptor site; assay: Receptor binding test RB1, [3H] Spiperone ligand, D(+)Butaclamol specific binding agent
From the text: (§1) As indication of the psychotropic activity and specificity of a compound, state of the art in vitro central nervous system receptor binding (RB) methodology can be employed. […] Inhibition of radiolabeled ligand binding at such sites is considered a measure of the test compound's ability to affect corresponding central nervous system function in vivo.
(§2) Some of the more common binding tests employed are listed below in Table 1.

[2] = biological target: T1, Serotonin Type 1A (5-HT1A) (Bos taurus, UniProt F6Q2H9); assay: Receptor binding test RB4, [3H] 8-OH-DPAT ligand, 8-OH-DPAT specific binding agent
T1 construct: from tissue
T1 sequence (F6Q2H9 1-422): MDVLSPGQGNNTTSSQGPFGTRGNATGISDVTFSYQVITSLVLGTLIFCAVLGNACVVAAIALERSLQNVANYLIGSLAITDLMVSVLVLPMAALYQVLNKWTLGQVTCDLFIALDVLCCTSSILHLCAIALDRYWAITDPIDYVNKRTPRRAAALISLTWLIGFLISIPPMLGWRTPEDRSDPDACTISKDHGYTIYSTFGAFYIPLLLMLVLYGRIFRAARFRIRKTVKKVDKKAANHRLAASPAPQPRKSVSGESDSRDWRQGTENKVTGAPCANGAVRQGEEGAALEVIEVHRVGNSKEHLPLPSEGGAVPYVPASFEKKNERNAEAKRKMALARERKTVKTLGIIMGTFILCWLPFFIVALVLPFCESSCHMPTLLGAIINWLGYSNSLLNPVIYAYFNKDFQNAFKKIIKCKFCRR
From the text: as §1, §2

Serotonin Type 2 (5-HT2) [3] = biological target: T2, Serotonin Type 2 (5-HT2) (Rattus norvegicus, UniProt P14842); assay: Receptor binding test RB3, [3H] Spiperone ligand, D-Lysergide specific binding agent
T2 construct: from tissue; frontal cortex in the cited method
From the text: as §1, §2

Alpha-1 = assay: Receptor binding test RB2, [3H] WB-4104 ligand, Phentolamine specific binding agent
From the text: as §1, §2

trained fasted rats = assay: Conditioned Avoidance Response (CAR), attenuation of avoidance response to electrical shock; format: in vivo; details: Rattus norvegicus
From the text: (§3) The following in vivo test systems (Table 2) are illustrative of the conventional testing used to classify and differentiate a psychotropic agent from a non-specific CNS depressant.

dopaminergic activity = assay: Inhibition of Apomorphine-Induced (APO) Stereotypy, blockade of dopaminergic activity; format: in vivo, rats; details: Rattus norvegicus, read-out: APO ED50
From the text: The following in vivo test systems (Table 2) are illustrative of the conventional testing used to classify and differentiate a psychotropic agent from a non-specific CNS depressant. |2. Inhibition of Apomorphine-Induced (APO) Stereotypy - | an assessment of blockade of dopaminergic activity in rats | as measured by attenuation of the behavioral syndrome | caused by the dopamine agonist, apomorphine. cf: Janssen, | et al, Arzneimittel.

dopamine receptor = details: following chronic administration; background statement; cited from earlier work
[4] = tested on: Serotonin Type 1A (5-HT1A); details: background statement; cited from earlier work
sigma receptor = details: background statement; cited from earlier work
dopamine D2 receptors = details: background statement; cited from earlier work
[5] = tested on: alpha-adrenergic receptor; details: background statement; cited from earlier work
Serotonin Type 2 (5-HT2) [6] = biological target: T2, Serotonin Type 2 (5-HT2); details: background statement; cited from earlier work
psychotropic activity = assay: in vivo screens predictive of antipsychotic activity, overall (Table 7); set-up: species or system rats; details: compared to tiospirone
From the text: as §3
1. Conditioned Avoidance Response (CAR) - measure of a
drug's tranquilizing activity as determined by its'
attenuation of avoidance response to electrical shock in
trained fasted rats. cf: Albert, Pharmacologist, -4, 152 (1962);
2. Inhibition of Apomorphine-Induced (APO) Stereotypy -
an assessment of blockade of dopaminergic activity in rats
as measured by attenuation of the behavioral syndrome
caused by the dopamine agonist, apomorphine. cf: Janssen,
et al, Arzneimittel. Forsch., --17, 841 (1966).

[7] = tested on: central nervous system receptor; assay: in vitro receptor binding (RB) tests, overall (Table 6)
From the text: As indication of the psychotropic activity and specificity of a compound, state of the art in vitro central nervous system receptor binding (RB) methodology can be employed. Certain compounds (commonly referred to as ligands) have been identified which preferentially bind to specific high affinity sites in brain tissue dealing with psychotropic activity. Inhibition of radiolabeled ligand binding at such sites is considered a measure of the test compound's ability to affect corresponding central nervous system function in vivo.
as §2

T2 sequence (P14842 whole entry): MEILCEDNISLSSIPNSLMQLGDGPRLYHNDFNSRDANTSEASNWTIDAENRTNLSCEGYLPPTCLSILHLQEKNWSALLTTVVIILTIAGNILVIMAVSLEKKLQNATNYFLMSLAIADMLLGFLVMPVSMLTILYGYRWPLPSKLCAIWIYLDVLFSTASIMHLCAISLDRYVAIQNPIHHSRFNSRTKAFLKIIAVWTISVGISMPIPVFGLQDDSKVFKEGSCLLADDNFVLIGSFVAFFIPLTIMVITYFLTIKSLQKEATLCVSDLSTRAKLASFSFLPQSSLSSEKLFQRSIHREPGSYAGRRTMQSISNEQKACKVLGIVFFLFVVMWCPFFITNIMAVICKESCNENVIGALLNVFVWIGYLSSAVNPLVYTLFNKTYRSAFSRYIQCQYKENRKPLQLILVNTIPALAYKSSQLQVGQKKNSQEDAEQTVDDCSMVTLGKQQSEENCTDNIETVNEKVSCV

IC50 ([2]; read-out: RB4 IC50) [nM]	Structure (SMILES)	IC50 [1] [nM]	IC50 (Serotonin Type 2 (5-HT2) [3]) [nM]	IC50 (Alpha-1) [nM]	ED50 (trained fasted rats; po) [mg/kg]	ED50 (dopaminergic activity; po) [mg/kg]	also measured
–	c1ccc2c(N3CCNCC3)nsc2c1 [Reference # 14, 4-(1,2-benzisothiazol-3-yl)1H-piperazine]	> 1000	110	510	–	–	IC50 [2]: 179 nM
–	O=C1CC2(CCC(O)C2)CC(=O)N1CCCCN1CCN(c2nsc3ccccc23)CC1 (centres unmarked) [Reference # 2, 2-Hydroxy-8-[4-[4-(1,2-benzisothiazol-3-yl)-1-piperazinyl]butyl]-8-azaspiro[4.5]decane-7,9-dione]	52.5	2.05	0.876	> 100	–	–
1850	O=C1CC2(CCC(O)C2)CC(=O)N1CCCCN1CCN(c2n[s+]([O-])c3ccccc23)CC1 (centres unmarked) [Reference # 3]	> 100000	1480	372	–	–	–
> 1000	O=C1CN(C2=NS(=O)(=O)c3ccccc32)CCN1 [Reference # 17, 4-(1,2-Benzisothiazol-1,1-dioxo-3-yl)-2-oxo-lH-piperazine]	–	> 100000	13100	–	–	–
–	O=C1CCC2(C1)CC(=O)N(CCCCN1CCN(c3nsc4ccccc34)CC1)C(=O)C2 [Reference # 5, 2-Oxo-8-[4-[4-(1,2-benzisothiazol-3-yl)-1-piperazinyl]butyl]-8-azaspiro[4.5]decane-7,9-dione]	68.3	2.92	1.3	–	–	ED50 (trained fasted rats; sc): 60.3 mg/kg; ED50 (dopaminergic activity; sc): > 50 mg/kg
–	O=C1CC2(CCCC2)CC(=O)N1CCCCN1CCN(c2nsc3ccccc23)CC1 [Reference # i, 8-[4-[4-(1,2-benzisothiazol-3-yl)-1-piperazinyl]butyl]-8-azaspiro[4.5]decane-7,9-dione]	–	–	47	10.9	13.1	dopamine receptor supersensitivity (dopamine receptor): does not cause dopamine receptor supersensitivity; in vitro interactions at serotonin 5-HT1A receptors [4]: potent; in vitro interactions at sigma receptor sites (sigma receptor): potent; in vitro affinity for dopamine D2 receptors (dopamine D2 receptors): appreciable; in vitro interactions at alpha-adrenergic receptor sites [5]: potent; in vitro interactions at serotonin 5-HT2 receptors (Serotonin Type 2 (5-HT2) [6]): potent
–	O=C1CC2(CCC(O)C2)CC(=O)N1CCC(O)CN1CCN(c2nsc3ccccc23)CC1 (centres unmarked) [Reference # 9]	491	19.8	7.15	–	–	–
–	O=C1CC2(CCCC2)CC(=O)N1CCCCN1CCN(C2=NS(=O)(=O)c3ccccc32)CC1 [Reference # 1]	> 1000	25000	274	> 100	> 100	–
> 100000	CC(C)(C)OC(=O)N1CCN(C2=NS(=O)(=O)c3ccccc32)CC1 [Reference # 18, 1,1-Dimethylethyl 4-(1,2-Benzisothiazol-1,1-dioxo-3-yl)-1piperazinecarboxylate]	> 1000	–	> 100000	–	–	–
–	O=C1CC2(CCCC2)C(O)C(=O)N1CCCCN1CCN(c2nsc3ccccc23)CC1 (centres unmarked) [Reference # 10, 8-[4-[4-(1,2-Benzisothiazol-3-yl)-1-piperazinyl]butyl]-6-hydroxy-8-azaspiro[-4.5]decane-7,9-dione]	–	1.1	–	8.4	26	–
1120	O=C1CC2(CCCC2)CC(=O)N1CCCCN1CCN(c2n[s+]([O-])c3ccccc23)CC1 (centres unmarked) [Reference # ii, 8-[4-[4-(1-oxo-l,2-benzisothiazol-3-yl) -1-piperazinyl]butyl]-8-azaspiro[4.5]decane-7,9-dione, reference compound]	3490	276	331	7.6	9.6	potency in in vivo screens predictive of antipsychotic activity (psychotropic activity): did not affect its potency; in vitro binding affinity compared to tiospirone [7]: attenuation of in vitro binding affinity
–	O=C1CC2(CCCC2)CC(=O)N1CCC(O)CN1CCN(c2nsc3ccccc23)CC1 (centres unmarked) [Reference # 7]	111	10.2	8.3	> 80	–	–

Structure (SMILES)	IC50 ([2]; read-out: RB4 IC50) [nM]	IC50 [1] [nM]	IC50 (Serotonin Type 2 (5-HT2) [3]) [nM]	IC50 (Alpha-1) [nM]	ED50 (trained fasted rats; po) [mg/kg]	ED50 (dopaminergic activity; po) [mg/kg]	also measured
CCCCCCCCCC(=O)OC1CCC2(CC(=O)N(CCCCN3CCN(c4nsc5ccccc45)CC3)C(=O)C2)C1 (centres unmarked) [Reference # 12, 8-[4-[4-(1,2-Benzisothiazol-3-yl)-1-piperazinyl]butyl]-7,9-dioxo-8-azaspiro[4.5]decan-2-yl Decanoate]	35.8	153	10.2	7.22	–	–	–

Source: patent publication US4956368A, “Metabolites and prodrug formulations of 8-[4-[4-(1,2-benzisothiazol-3-yl)-1-piperazinyl]butyl]-8-azaspiro[4.5]de cane-7,9-dione” (Bristol-Myers Company, priority 1989, dated 1990)
